Data published in publication PMC12391994, “Synthesis of a fac-Tricarbonylrhenium(I) Complex with Pyrithione, Its Physicochemical Characterization, and Assessment of Biological Effects” (ACS Omega, 2025).
Values joined by “and” are separate entries in the source; they are usually repeats but may differ in a detail not shown here. Identical values can stand only once. Marks after values point to notes of the source that are not given here.

What was measured:
[1] = Behavior in blood serum; type: physicochemical, human; conditions: concentration of 40 μM
[2] = pH-dependent UV-vis spectrophotometry (solution speciation, pKa of aqua ligand); type: physicochemical; conditions: between pH 3 and 8, no spectral changes
Text: However, at pH > ∼8, the spectrum changes considerably (Figure ).
The isosbestic point indicates a single equilibrium process, which is most likely deprotonation of the coordinated aqua ligand in complex 4a. This process was studied in our previous work for similar fac-[Re(CO)3] complexes formed with (N,N)-bearing ligands, and the calculated pK a (H2O) is around 8. […] Similar pK a values in the presence and absence of the chloride ions indicate a low chloride affinity of the aqua complex. Based on these values, the fraction of [Re(CO)3(pth)(H2O)] is 100% at pH = 7.4. The analogous half-sandwich complex [Ru(cym)(pth)(H2O)]^+ was also characterized by high solution stability, and a similarly high pK a value (10.34 (0.2 M KCl)).
For the solution studies, an Agilent Cary 3500 spectrophotometer was utilized to obtain UV–vis spectra in the wavelength range of 200–1100 nm. The path length ( l ) was 1 cm in all cases. The concentrations of the complex were between 10 and 60 μM. For investigation of the effect of chloride ions, the samples contained 60 μM complex and 0–7300 equiv of Cl^–. For HSA-containing samples, complex concentrations were 60 μM, and 0.5 equiv of biomolecule (or 6 equiv of MIM) was added for kinetic studies, respectively. Individual samples contained 0–34 μM HSA. The computer program HypSpec was used to obtain equilibrium constants.

[3] = biological target: T1, human serum albumin (HSA) (Homo sapiens, UniProt P02768); assay: Membrane ultrafiltration with HSA; type: binding; conditions: 1:2 protein-to-complex ratio (25 μM HSA, 50 μM complex), pH 7.4
T1 construct: purchased Sigma-Aldrich/Merck A8763
Experimental: To characterize the binding strength of the complex to HSA, the UV–vis spectrum of the complex was recorded in the presence of different amounts of the protein (Figure ). The gradual spectral changes leveled off at about 0.5 equiv of the protein, indicating at least two binding sites. However, from these spectral changes, no formation constants could be calculated due to the overlapping processes.
Milli-pore, Amicon Ultra-0.5 membrane filters (10 kDa) were used to separate samples containing 25 μM HSA and 50 μM complex (1:2 biomolecule-to-complex ratio) into low and high molecular mass (LMM and HMM) fractions as described in our former work. UV–vis spectrophotometry was used to determine the concentration of the nonbound compounds in the LMM fractions by comparing to a reference sample without the protein.

[4] = test system: Colo320 cells; assay: MTT cytotoxicity assay, Colo320; type: cell-based, human; conditions: 72 h incubation
Experimental: Its cytotoxicity was determined in the human HeLa cervical cancer cell line, the drug-sensitive Colo205 and its resistant counterpart, the ABCB1 expressing Colo320 colon adenocarcinoma cancer cell lines, using the colorimetric 3-(4,5-dimethylthiazol-2-yl)-2,5-diphenyltetrazolium bromide (MTT) test. To investigate the selectivity toward cancer cells, the noncancerous fibroblast CCD-19Lu cell line was included.
Drug-sensitive Colo205 (ATCC-CCL-222) and ABCB1 (MDR1)-LRP expressing and doxorubicin-resistant Colo320/MDR-LRP (ATCC-CCL-220.1) human colonic adenocarcinoma cell lines were purchased from LGC Promochem (Teddington, U.K.). The cells were cultured in RPMI 1640 medium supplemented with 10% heat-inactivated fetal bovine serum, 2 mM L-glutamine, 1 mM Na-pyruvate, and 10 mM HEPES.
The tested compound was dissolved in DMSO to prepare a 5 mM stock solution, which was diluted in complete culture medium, to study the effect of compounds on cell growth of human colonic adenocarcinoma cell lines. Doxorubicin was used as the positive control. The cells were treated with a trypsin-versene (EDTA) solution. […] Cell growth was determined by measuring the optical density (OD) at 540/630 nm with a Multiscan EX ELISA reader (Thermo Labsystems, Cheshire, WA). […]

[5] = biological target: T2, cathepsin B (endopeptidase activity) (Homo sapiens, UniProt P07858); assay: Determination of inhibition constants, cathepsin B endopeptidase activity; type: biochemical; conditions: substrate Z-RR-AMC
T2 construct: made in house; host or cells: E. coli
Experimental: (§1) Human recombinant cathepsin B was expressed in E. coli, recombinant cathepsin V was expressed in Pichia pastoris, and human recombinant cathepsin L was expressed in E. coli, as reported. − For the determination of cathepsin B endopeptidase and exopeptidase activities, 100 mM phosphate buffer (pH 6.0) and 60 mM acetate buffer (pH 5.0) were used, respectively, and for the determination of cathepsin V and L activities, 100 mM acetate buffer (pH 5.5) was used. All buffers contained 0.1% PEG 8000 (Sigma-Aldrich, St. Louis, MO), 5 mM cysteine, and 1.5 mM EDTA. Prior to the assay, the enzymes were activated in the assay buffer for 5 min at 37 °C.
(§2) Inhibition constants were calculated from the reaction velocities measured at three substrate concentrations (the substrate Z-Arg-Arg-AMC at concentrations of 60, 180, and 360 μM and the substrate Abz-Gly-Ile-Val-Arg-Ala-Lys(Dnp)-OH at concentrations of 1, 3, and 6 μM to assess cathepsin B endopeptidase and exopeptidase activity, respectively) in the presence of seven concentrations of the inhibitor (0, 20, 40, 60, 80, 100, and 200 μM). […] Formation of fluorescent degradation products was monitored as described above. […]

[6] = biological target: T3, cathepsin B (exopeptidase activity) (Homo sapiens, UniProt P07858); assay: Determination of inhibition constants, cathepsin B exopeptidase activity; type: biochemical; conditions: substrate Abz-GIVRAK(Dnp)-OH, mixed inhibition
T3 construct: made in house; host or cells: E. coli
Experimental: as §1, §2

[7] = pH 7.4, 25.0 °C
Experimental: The concentration of the compound was determined by UV–vis spectrophotometry. For calibration, stock solutions of the compound were used with known concentrations dissolved in 100% DMSO, 75% DMSO, and 50% (v/v) DMSO/buffered aqueous solutions.

T1 sequence (P02768 25-609): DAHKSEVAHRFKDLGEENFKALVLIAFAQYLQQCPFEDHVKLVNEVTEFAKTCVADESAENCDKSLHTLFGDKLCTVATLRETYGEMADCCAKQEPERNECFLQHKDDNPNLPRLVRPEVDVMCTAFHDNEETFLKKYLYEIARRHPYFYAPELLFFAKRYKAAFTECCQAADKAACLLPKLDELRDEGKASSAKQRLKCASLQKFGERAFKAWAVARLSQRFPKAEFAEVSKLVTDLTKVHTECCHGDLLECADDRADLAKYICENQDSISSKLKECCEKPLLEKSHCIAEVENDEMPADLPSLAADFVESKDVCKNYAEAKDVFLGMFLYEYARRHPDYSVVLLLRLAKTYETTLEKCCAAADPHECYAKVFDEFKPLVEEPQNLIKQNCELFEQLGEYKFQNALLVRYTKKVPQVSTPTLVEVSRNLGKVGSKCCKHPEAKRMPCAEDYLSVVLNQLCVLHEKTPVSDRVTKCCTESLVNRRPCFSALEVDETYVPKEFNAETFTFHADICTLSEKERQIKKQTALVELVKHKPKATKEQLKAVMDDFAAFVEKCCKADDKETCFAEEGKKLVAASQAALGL

Compound: N#Cc1ccccc1.[C-]#[O+].[C-]#[O+].[C-]#[O+].[O-]n1ccccc1=S.[Re+] [complex 4, fac-[Re(CO)3(pth)(benzonitrile)]]
- behavior in blood serum [1]: precipitation
- integrity of the complex (aqua form) from UV-vis spectra [2]: remains intact
- unbound complex in low molecular mass fraction [3]: ~10%
- IC50 [4]: 10.5 ± 0.85 µM
- mode of inhibition, cathepsin B endopeptidase activity [5]: uncompetitive
- Ki′ (dissociation of enzyme–substrate–inhibitor complex), endopeptidase activity ([5]; uncompetitive inhibition): 17.02 ± 1.59 μM and 17.0 ± 1.6 ^c μM
- Ki′ (dissociation of enzyme–substrate–inhibitor complex), exopeptidase activity [6]: 67.0 ± 8.3 ^d μM
- Ki ([6]; read-out: Ki (dissociation of enzyme–inhibitor complex), exopeptidase activity): 165 ± 76 µM
- aqueous solubility S7.4 [7]: 350 ± 10 µM
